This passage reports Ki and IC50 results from ChEMBL document CHEMBL4402553, “Recent advances in the discovery and development of glyoxalase I inhibitors” (Bioorg Med Chem, 2020).

The target of assay [1] is Lactoylglutathione lyase (Mus musculus, UniProt Q9CPU0). Kind of assay: Competitive inhibition of recombinant mouse His-tagged Glyoxalase-1 using GSH and MGO as substrate by spectrophotometric method.
Assay [2] concerns the target T1, Lactoylglutathione lyase (Homo sapiens, UniProt Q04760). Nature of the assay: Competitive inhibition of human Glyoxalase-1 using GSH and MGO as substrate.
The target of assay [3] is T1, Lactoylglutathione lyase. Kind of assay: Inhibition of human Glyoxalase-1.
Assay [4] concerns the target T1, Lactoylglutathione lyase. Nature of the assay: Inhibition of Glyoxalase-1 (unknown origin).
The target in assay [5] is T1, Lactoylglutathione lyase. Nature of the assay: Competitive inhibition of human Glyoxalase-1 using GSH and MGO as substrate by Michaelis-Menten analysis.

T1 sequence (Q04760 whole entry): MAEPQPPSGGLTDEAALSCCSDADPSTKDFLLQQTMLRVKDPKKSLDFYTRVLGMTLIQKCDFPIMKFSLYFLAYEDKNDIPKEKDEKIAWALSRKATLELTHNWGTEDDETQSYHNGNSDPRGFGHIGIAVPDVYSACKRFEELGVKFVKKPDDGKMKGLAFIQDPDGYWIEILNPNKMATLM
Lactoylglutathione lyase (Mus musculus, UniProt Q9CPU0), sequence (Q9CPU0 whole entry): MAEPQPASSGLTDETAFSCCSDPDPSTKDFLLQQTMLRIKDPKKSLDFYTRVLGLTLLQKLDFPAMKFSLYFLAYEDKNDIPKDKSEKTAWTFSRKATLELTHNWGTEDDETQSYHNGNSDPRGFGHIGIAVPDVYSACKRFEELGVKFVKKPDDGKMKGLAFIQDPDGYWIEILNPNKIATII

A word on the Ki: it is the equilibrium dissociation constant of an inhibitor or competing ligand from its target. For `COC(=O)c1c(C)cc(Oc2cc(C)cc(O)c2O)cc1O`, the Ki in assay [1] was determined as 230 nM.
Take `C#Cc1cccc(N(O)C(=O)CC[C@H](NC(=O)CC[C@H](N)C(=O)O)C(=O)NCC(=O)O)c1`: the affinity in assay [2], expressed as Ki, was 1 nM.
`N[C@@H](CCC(=O)N[C@@H](CSC(=O)N(O)c1ccc(I)cc1)C(=O)NCC(=O)O)C(=O)O`: affinity in assay [3] was put at a Ki of 10 nM.
For `C#Cc1ccc(N(O)C(=O)SC[C@H](NC(=O)CC[C@H](N)C(=O)O)C(=O)NCC(=O)O)cc1`, the Ki in assay [2] was found to be 7 nM.
The term IC50 denotes the point on the concentration scale where inhibition reaches its midpoint. A low value points to higher potency. `NS(=O)(=O)c1ccc2c(c1)S(=O)(=O)NC2=O` came in with an IC50 in assay [4] of 90 µM.
The molecule `O=C(O)CNC(=O)[C@H](CSC(=O)N(O)c1ccc(Cl)cc1)NC(=O)CC[C@H](NC(=O)CCNC(=O)CCNC(=O)CCNC(=O)CCNC(=O)CCNC(=O)CCNC(=O)CCCCCCC(=O)NCCC(=O)NCCC(=O)NCCC(=O)NCCC(=O)NCCC(=O)NCCC(=O)N[C@@H](CCC(=O)N[C@@H](CSC(=O)N(O)c1ccc(Cl)cc1)C(=O)NCC(=O)O)C(=O)O)C(=O)O` came in with a Ki in assay [5] of 0.96 nM.
In assay [2], `C#Cc1cccc(N(O)C(=O)SC[C@H](NC(=O)CC[C@H](N)C(=O)O)C(=O)NCC(=O)O)c1` displayed a Ki of 19 nM.
Consider `Cc1cc(O)c(O)c(Oc2cc(C)c(C(=O)O)c(O)c2)c1`, for which, in assay [1], the Ki is 150 nM.
